In the test the target is T1, Human CXCR4 transfected HEK293 cells (Homo sapiens, UniProt P61073).
T1 construct: expressed in transfected cells; host or cells: HEK293
The test can be described thus: CXCR4 functional calcium assay (calcium flux FLIPR, antagonism of SDF1 response). The format is cell-based. The settings on record: CXCR4 functional activity, antagonism of SDF1 (EC50 concentration), read-out: CXCR4 fKi. In a few lines: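 HEK293 cells stably transfected with human CXCR4 were loaded with 2 μM Fluo-4 AM in HBSS containing 2.5 mM probenecid, 0.1% BSA and 10 mM HEPES at pH 7.4 and 37° C. Compound was added first, then SDF1 at its EC50 concentration, and intracellular calcium fluorescence was followed on a FLIPR. Antagonist dose-response curves were fitted.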

Among the data in US10995091B2 (Proximagen, LLC, priority 2010, dated 2021) are Ki values, retold here.

T1 sequence (P61073 whole entry): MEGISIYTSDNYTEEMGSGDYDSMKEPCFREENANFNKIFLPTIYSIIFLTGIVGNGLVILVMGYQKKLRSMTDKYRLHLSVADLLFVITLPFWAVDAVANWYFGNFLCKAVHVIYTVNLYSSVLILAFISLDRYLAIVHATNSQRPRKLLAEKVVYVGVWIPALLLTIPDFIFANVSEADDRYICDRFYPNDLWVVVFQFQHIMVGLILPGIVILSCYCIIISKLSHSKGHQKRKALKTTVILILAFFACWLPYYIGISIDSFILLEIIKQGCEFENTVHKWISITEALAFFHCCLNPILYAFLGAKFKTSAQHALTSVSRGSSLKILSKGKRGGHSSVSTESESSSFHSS

With `O=C(Nc1ccncc1)c1cccc(N2CCCN(C3CCC(N4CCCC4C(F)(F)F)CC3)CC2)n1` (centres unmarked) [Example 257, N-(Pyridin-4-yl)-6-(4-{4-[2-(trifluoromethyl)pyrrolidin-1-yl]cyclohexyl}-1,4-diazepan-1-yl)pyridine-2-carboxamide], the Ki lay within 500 to 1000 nM.

Turning to `CCCCNC(=O)c1cccc(N2CCCN(C3CCN(C(C)C)CC3)CC2)n1` [Example 7, N-Butyl-6-{4-[1-(propan-2-yl)piperidin-4-yl]-1,4-diazepan-1-yl}pyridine-2-carboxamide], the Ki was in the range of 20 to 100 nM.

Regarding `CC(C)N1CCC(N2CCCN(c3cccc(C(=O)Nc4ccccn4)n3)CC2)CC1` [Example 28, 6-{4-[1-(Propan-2-yl)piperidin-4-yl]-1,4-diazepan-1-yl}-N-(pyridin-2-yl)pyridine-2-carboxamide], the Ki is below 20 nM.

For the compound `CC(C)N1CCC(N2CCCN(c3cccc(C(=O)Nc4nccs4)n3)CC2)CC1` [Example 31, 6-{4-[1-(Propan-2-yl)piperidin-4-yl]-1,4-diazepan-1-yl}-N-(1,3-thiazol-2-yl)pyridine-2-carboxamide], the Ki is below 20 nM.

`COCCCNC(=O)c1cccc(N2CCCN(C3CCN(C(C)C)CC3)CC2)n1` [Example 15, N-(3-Methoxypropyl)-6-{4-[1-(propan-2-yl)piperidin-4-yl]-1,4-diazepan-1-yl}pyridine-2-carboxamide]: the Ki was 100 to 500 nM.

Consider `Cc1cc(C(=O)NCCCn2ccnc2)nc(N2CCCN(C3CCN(Cc4ccccc4Cl)CC3)CC2)n1` [Example 266, 2-(4-{1-[(2-Chlorophenyl)methyl]piperidin-4-yl}-1,4-diazepan-1-yl)-N-[3-(1H-imidazol-1-yl)propyl]-6-methylpyrimidine-4-carboxamide], for which the Ki was in the range of 100 to 500 nM.

`CC(C)N1CCC(N2CCCN(c3cccc(-c4noc(C5CCCC5)n4)n3)CC2)CC1` [Example 162, 1-[6-(5-Cyclopentyl-1,2,4-oxadiazol-3-yl)pyridine-2-yl]-4-[1-(propan-2-yl)piperidin-4-yl]-1,4-diazepane]: the Ki was in the range of 100 to 500 nM.

In the case of `CC(C)N1CCC(N2CCCN(c3cccc(C(=O)Nc4cncs4)n3)CC2)CC1` [Example 32, 6-{4-[1-(Propan-2-yl)piperidin-4-yl]-1,4-diazepan-1-yl}-N-(1,3-thiazol-5-yl)pyridine-2-carboxamide], the Ki was below 20 nM.

`Cc1nc(-c2cccc(N3CCCN(C4CCN(C(C)C)CC4)CC3)n2)[nH]c1C` [Example 118, 1-[6-(4,5-Dimethyl-1H-imidazol-2-yl)pyridine-2-yl]-4-[1-(propan-2-yl)piperidin-4-yl]-1,4-diazepane]: the Ki lay in the range of 20 to 100 nM.

`CC(CC(F)(F)F)N1CCC(N2CCCN(c3cccc(C(=O)NCC4CC4)n3)CC2)CC1` (centres unmarked) [Example 70, N-(Cyclopropylmethyl)-6-{4-[1-(4,4,4-trifluorobutan-2-yl)piperidin-4-yl]-1,4-diazepan-1-yl}pyridine-2-carboxamide]: the Ki lay in the range of 20 to 100 nM.

For `CC(C)(C)N1CCC(N2CCCN(c3cccc(C(=O)Nc4ccncc4)n3)CC2)CC1` [Example 80, 6-[4-(1-tert-Butylpiperidin-4-yl)-1,4-diazepan-1-yl]-N-(pyridine-4-yl)pyridine-2-carboxamide], the Ki is below 20 nM.

Regarding `O=C(NCC1CC1)c1cccc(N2CCCN(C3CCN(C4CCCC4F)CC3)CC2)n1` (centres unmarked) [Example 73, N-(Cyclopropylmethyl)-6-{4-[1-(2-fluorocyclopentyl)piperidin-4-yl]-1,4-diazepan-1-yl}pyridine-2-carboxamide], the Ki was in the range of 20 to 100 nM.

Consider `Cc1ccc(NC(=O)c2cccc(N3CCCN(C4CCN(C(C)C)CC4)CC3)n2)cc1` [Example 27, N-(4-Methylphenyl)-6-{4-[1-(propan-2-yl)piperidin-4-yl]-1,4-diazepan-1-yl}pyridine-2-carboxamide], for which the Ki fell in the range of 20 to 100 nM.

Consider `CC(C)c1cnc(-c2cccc(N3CCCN(C4CCN(C(C)C)CC4)CC3)n2)[nH]1` [Example 110, 1-{6-[4-(Propan-2-yl)-1H-imidazol-2-yl]pyridine-2-yl}-4-[1-(propan-2-yl)piperidin-4-yl]-1,4-diazepane], for which the Ki was 20 to 100 nM.
